# Values quoted from earlier work in US20240285562A1, “USE OF (S)-3-AMINO-4-(DIFLUOROMETHYLENYL) CYCLOPENT-1-ENE-1-CARBOXYLIC ACID IN THE TREATMENT OF MULTIPLE SCLEROSIS” (Ovid Therapeutics Inc., priority 2023, published 2024).
# Key:
# OAT = target: T1, OAT (Homo sapiens, UniProt P04181)
# T1 sequence (P04181 36-439 limits assumed): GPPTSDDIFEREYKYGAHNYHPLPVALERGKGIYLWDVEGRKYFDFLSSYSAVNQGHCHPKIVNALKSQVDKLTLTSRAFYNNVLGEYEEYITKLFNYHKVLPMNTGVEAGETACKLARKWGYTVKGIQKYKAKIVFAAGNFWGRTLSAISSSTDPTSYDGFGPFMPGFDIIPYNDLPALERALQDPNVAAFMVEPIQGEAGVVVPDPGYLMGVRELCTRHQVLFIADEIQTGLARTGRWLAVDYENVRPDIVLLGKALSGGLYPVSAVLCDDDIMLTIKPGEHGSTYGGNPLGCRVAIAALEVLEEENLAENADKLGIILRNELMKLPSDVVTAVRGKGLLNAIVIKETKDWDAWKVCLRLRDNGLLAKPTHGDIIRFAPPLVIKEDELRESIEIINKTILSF
# [1] = target: aspartate aminotransferase (Asp-AT)
# [2] = target: alanine amidotransferase (Ala-AT)
# [3] = system: autoimmune response in EAE; settings: oral or parenteral administration, murine EAE
compound,measurement,setting,value
N[C@H]1C=C(C(=O)O)CC1=C(F)F [(S)-3-amino-4-(difluoromethylenyl)cyclopent-1-ene-1-carboxylic acid],times more efficient an inactivator of OAT than CPP-115,OAT; ratio of kinact/KI versus CPP-115,9.0 times
same,IC50,[1]; reversible inhibition,> 4000 µM
same,IC50,[2]; reversible inhibition,> 4000 µM
"N[C@H]1C[C@@H](C(=O)O)CC1=C(F)F [CPP-115, (1S,3S)-3-amino+difluoromethylenyl-1-cyclopentanoic acid, reference compound]",Ki,OAT; OAT inactivation,116 µM
same,inactivation or inhibition of off-target enzyme,[1],not to inactivate or inhibit
same,inactivation or inhibition of off-target enzyme,[2],not to inactivate or inhibit
"NCCCC(=O)O [GABA, gamma-aminobutyric acid]",reduction of the damaging autoimmune response,[3],ineffective
